Source: US20230001005A1, “TREATMENT OF CANCERS WITH ANTIBODY DRUG CONJUGATES (ADC) THAT BIND TO 191P4D12 PROTEINS” (AGENSYS, INC., priority 2019, published 2023)
Starred links: 1 amine or outer side, 2 acyl side, 3 side chain; linkers in the order of their positions; H or OH if unused. Non-standard residues stand in square brackets, D forms with d. Residues, ends and D or L forms follow the SMILES beside them. *: point of attachment. Dolaproine = CO[C@@H]([C@@H]1CCCN1)[C@@H](C)C(=O)O; Hexanoyl(6-maleimido) = O=C1C=CC(=O)N1CCCCCC(=O)*; Dil = CC[C@H](C)[C@H](NC)[C@@H](CC(=O)O)OC; PABC = O=C(OCc1ccc(N[*:1])cc1)[*:2]; X1 = C[C@@H](N*)[C@@H](O)c1ccccc1; Cit = NC(=O)NCCC[C@H](N)C(=O)O; NMeV = CN[C@H](C(=O)O)C(C)C

Assays:
bacteria = test: Reverse mutation test in bacteria (Ames test)
[1] = system: L5178Y TK+/−mouse lymphoma; test: L5178Y TK+/− mouse lymphoma mutation assay; assay type: cell-based
[2] = Absorbance / phototoxicity assessment (ICH S10)
rats [3] = test: Micronucleus test in rats; assay type: in vivo
[4] = system: squamous NSCLC, Gastric (GEJ) cancer, HNSCC, NSCLC-adenocarcinoma, head & neck cancer-squamous, and breast cancer; conditions: MMAE, Vinca, or both MMAE and Vinca; Vinca used if data for MMAE was not available; cited from earlier work
[5] = system: xenograft of human HR+breast cancer cell line; test: Tumor xenograft model, human HR+ breast cancer cell line; assay type: in vivo; conditions: 5 mg/kg every 4 days for 4 doses
[6] = system: xenograft of a patient-derived bladder cancer; test: Tumor xenograft model, patient-derived bladder cancer; assay type: in vivo; conditions: in a dose-dependent manner
lung cancer xenografts = test: Formation of lung cancer xenografts (subcutaneous mouse xenograft model); set-up: species or system SCID mice; conditions: in vivo
Protocol: (§1) Subcutaneous (s.c.) tumors are generated by injection of 5×10^4- 10^6 cancer cells mixed at a 1:1 dilution with Matrigel (Collaborative Research) in the right flank of male SCID mice. To test ADC efficacy on tumor formation, ADC injections are started on the same day as tumor-cell injections. As a control, mice are injected with either purified human IgG or PBS; or a purified MAb that recognizes an irrelevant antigen not expressed in human cells. In preliminary studies, no difference is found between control IgG or PBS on tumor growth. Tumor sizes are determined by caliper measurements, and the tumor volume is calculated as width^2×Length/2, wherein width is the smallest dimension and length is the largest dimension. Mice with subcutaneous tumors greater than 1.5 cm in diameter are sacrificed.

breast cancer xenografts = test: Formation of breast cancer xenografts (subcutaneous mouse xenograft model); set-up: species or system SCID mice; conditions: in vivo
Protocol: as §1

[7] = system: human breast cancer xenograft BT-483; test: Efficacy in subcutaneous established human breast cancer xenograft BT-483 in SCID mice; assay type: in vivo; conditions: 5 mg/kg every four days for four doses, intravenous bolus; compared to control ADC
Protocol: In this experiment, human breast cancer BT-483 cells were used to generate stock xenografts, which were maintained by serial passages in SCID mice. Stock tumors were harvested sterilely and minced into 1 mm^3 pieces. Six (6) pieces were implanted into the flank of individual SCID mice. Tumors were allowed to grow untreated until they reached an approximate volume of 100 mm^3. The Ha22-2(2,4)6.1vcMMAE and the control ADC were dosed at 5 mg/kg every four (4) days for four (4) doses by intravenous bolus injection. The amount of ADC administered was based on the individual body weight of each animal obtained immediately prior to dosing. Tumor growth was monitored using caliper measurements every 3 to 4 days. Tumor volume was calculated as Width^2×Length/2, where width is the smallest dimension and length is the largest dimension.

[8] = system: xenografts of human lung adenocarcinoma cell line; test: Tumor xenograft model, human lung adenocarcinoma cell line; assay type: in vivo
cynomolgus monkeys [9] = test: Immunogenicity in cynomolgus monkeys; assay type: in vivo
cynomolgus monkeys [10] = system: cynomolgus monkeys
[11] = system: patient-derived TNBC cell xenograft; test: Patient-derived TNBC cell xenograft model; assay type: in vivo
[12] = system: human lung cancer xenograft AG-L4; test: Efficacy in subcutaneous established human lung cancer xenograft AG-L4 in SCID mice; assay type: in vivo; conditions: 10 mg/kg every seven days for two doses, intravenous bolus; compared to control ADC
Protocol: In another experiment, patient-derived lung cancer xenograft AG-L4 was maintained by serial passages in SCID mice. Stock tumors were harvested sterilely and minced into 1 mm^3 pieces. Six (6) pieces were implanted into the flank of individual SCID mice. Tumors were allowed to grow untreated until they reached an approximate volume of 200 mm^3. The Ha22-2(2,4)6.1vcMMAE and the control ADC were dosed at 10 mg/kg every seven (7) days for two doses by intravenous bolus injection. The amount of ADC administered was based on the individual body weight of each animal obtained immediately prior to dosing. Tumor growth was monitored using caliper measurements every 3 to 4 days. Tumor volume was calculated as Width^2×Length/2, where width is the smallest dimension and length is the largest dimension.

[13] = system: cell line engineered to express human 191P4D12; test: In vitro cell survival, engineered cell line; assay type: cell-based
male and female rats = test: Immunogenicity in rats; assay type: in vivo
[14] = system: patient-derived lung adenocarcinoma; test: Tumor xenograft model, patient-derived lung adenocarcinoma; assay type: in vivo
[15] = system: acute myeloid leukemia (AML) at relapse; conditions: administered alone; cited from earlier work
[16] = Comparability study: in vitro cytotoxicity; assay type: cell-based
[17] = Comparability study: in vivo antitumor activity
191P4D12 = target: T1, 191P4D12 (Homo sapiens, UniProt Q96NY8); test: Comparability study: binding affinity to 191P4D12
T1 sequence (Q96NY8 32-510): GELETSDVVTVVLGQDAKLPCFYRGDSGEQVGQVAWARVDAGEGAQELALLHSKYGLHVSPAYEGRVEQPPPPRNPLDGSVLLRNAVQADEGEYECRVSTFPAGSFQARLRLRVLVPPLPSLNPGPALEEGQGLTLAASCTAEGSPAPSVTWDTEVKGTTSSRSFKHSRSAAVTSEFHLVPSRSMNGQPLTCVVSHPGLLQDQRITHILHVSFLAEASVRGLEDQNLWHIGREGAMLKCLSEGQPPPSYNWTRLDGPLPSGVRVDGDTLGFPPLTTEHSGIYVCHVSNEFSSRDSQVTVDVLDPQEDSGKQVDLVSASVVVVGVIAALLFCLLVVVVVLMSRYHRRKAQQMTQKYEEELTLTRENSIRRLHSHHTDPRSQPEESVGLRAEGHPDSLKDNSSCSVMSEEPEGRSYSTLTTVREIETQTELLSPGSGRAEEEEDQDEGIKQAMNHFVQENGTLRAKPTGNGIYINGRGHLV

[18] = system: metastatic urothelial cancer; test: EV-101 phase 1 dose escalation/expansion study; assay type: in vivo, human
Description: EV-101 is a phase 1 dose escalation/expansion study that enrolled patients with 191P4D12-expressing solid tumors, (eg, metastatic urothelial cancer [UC]), who progressed on ≥1 prior chemotherapy regimen, including a cohort of patients with metastatic UC who received prior anti-PD-(L)1 therapy.
Enfortumab vedotin provided durable responses and meaningful survival results in patients after anti-PD-(L)-1 therapy in a population with a high unmet medical need. The confirmed ORR was 45% by a central review in patients who were treated with enfortumab vedotin 1.25 mg/kg. The median overall survival (OS) of 12.3 months is encouraging given the historical median OS is ≤10.3 months (Bellmunt J et al, N Eng J Med. 2017; 376(11):1015-1026).

monkeys = test: Toxicity studies in monkeys; conditions: sexually immature male monkeys, doses up to 6 mg/kg
[19] = system: patients who progressed after platinum chemotherapy and a PD-1/L1 inhibitor; test: EV-201 pivotal phase 2 study; assay type: in vivo, human
Protocol: In a pivotal phase 2 study (EV-201), patients must have had prior treatment with platinum-containing chemotherapy or be platinum-naïve and ineligible for cisplatin treatment. […] The confirmed ORR was 44% in patients treated with enfortumab vedotin 1.25 mg/kg. The median OS was 11.7 months and the median duration of response was 7.6 months.

rats [20] = test: Toxicity studies in rats; assay type: in vivo

CC[C@H](C)[C@@H]([C@@H](CC(=O)N1CCC[C@H]1[C@H](OC)[C@@H](C)C(=O)N[C@H](C)[C@@H](O)c1ccccc1)OC)N(C)C(=O)[C@@H](NC(=O)[C@@H](NC)C(C)C)C(C)C [MMAE, monomethyl auristatin E] (H-[NMeV]V[Dil][Dolaproine]-X1)
genotoxic potential (bacteria): no discernible genotoxic potential
genotoxic potential [1]: no discernible genotoxic potential
absorbance in the range of 290 nm to 700 nm [2]: no absorbance
chromosomal aberrations (rats [3]): induce chromosomal aberrations
sensitivity of the cancers to cytotoxicity [4]: sensitive to cytotoxicity

AGS-22M6E: ADC derived from a murine hybridoma cell line; antibody Ha22-2(2,4)6.1 conjugated to MMAE via vc linker
tumor growth [5]: significantly inhibited the tumor growth
tumor growth [6]: significantly inhibited the tumor growth
formation of lung cancer xenografts (lung cancer xenografts): inhibits formation
formation of breast cancer xenografts (breast cancer xenografts): inhibits formation
growth of BT-483 breast tumor xenografts (tumor volume) [7]: significantly inhibited the growth
tumor growth [8]: significantly inhibited tumor growth
immunogenicity (cynomolgus monkeys [9]): moderately immunogenic
immunogenicity, AGS-22M6E versus enfortumab vedotin (cynomolgus monkeys [9]): comparable
pharmacokinetics, AGS-22M6E versus enfortumab vedotin (cynomolgus monkeys [10]): comparable
safety profile, AGS-22M6E versus enfortumab vedotin (cynomolgus monkeys [10]): comparable
pharmacological antitumor activity, enfortumab vedotin versus AGS-22M6E [11]: comparable
growth of AG-L4 lung cancer xenografts (tumor volume) [12]: significantly inhibited the growth
cell survival / cell growth [13]: inhibited cell survival
immunogenicity (male and female rats): moderately immunogenic
tumor growth [14]: significantly inhibited tumor growth

AGS-22M6
cell survival / cell growth [13]: did not affect cell growth

CT-011: anti-PD-1 antibody, a humanized antibody
response [15]: failed to show response

enfortumab vedotin
comparability of in vitro cytotoxicity, enfortumab vedotin versus AGS-22M6E [16]: confirmed
comparability of in vivo antitumor activity, enfortumab vedotin versus AGS-22M6E [17]: confirmed
comparability of binding affinity to 191P4D12, enfortumab vedotin versus AGS-22M6E (191P4D12): confirmed
photoreactivity / direct phototoxicity ([2]; concluded from absorbance of MMAE and vc-MMAE): not considered to be sufficiently photoreactive
median overall survival (OS) [18]: 12.3 months
confirmed ORR ([18]; by a central review, 1.25 mg/kg, metastatic urothelial cancer after anti-PD-(L)-1 therapy): 45%
immunogenicity, AGS-22M6E versus enfortumab vedotin (cynomolgus monkeys [9]): comparable
safety profile, AGS-22M6E versus enfortumab vedotin (cynomolgus monkeys [10]): comparable
pharmacological antitumor activity, enfortumab vedotin versus AGS-22M6E [11]: comparable
testicular toxicity (monkeys): not observed
median OS [19]: 11.7 months
median duration of response [19]: 7.6 months
confirmed ORR ([19]; 1.25 mg/kg): 44%
dose at which testicular toxicity (seminiferous tubule degeneration and hypospermia in the epididymis) was noted (rats [20]): ≥ 2.0 mg/kg
reversibility of testicular findings (rats [20]; end of a 24-week recovery period): partially reversed

CC[C@H](C)[C@@H]([C@@H](CC(=O)N1CCC[C@H]1[C@H](OC)[C@@H](C)C(=O)N[C@H](C)[C@@H](O)c1ccccc1)OC)N(C)C(=O)[C@@H](NC(=O)[C@H](C(C)C)N(C)C(=O)OCc1ccc(NC(=O)[C@H](CCCNC(N)=O)NC(=O)[C@@H](NC(=O)CCCCCN2C(=O)C=CC2=O)C(C)C)cc1)C(C)C [vc-MMAE, valine-citrulline linker-MMAE] ({Hexanoyl(6-maleimido)}-V[Cit][PABC][NMeV]V[Dil][Dolaproine]-X1)
absorbance against the criteria for phototoxicity testing as defined in the ICH S10 guidance [2]: did not meet the criteria for phototoxicity testing
